Measurements: article PMC10781097, “Chemical Profile and Health-Promoting Activities of Crataegus laciniata (Rosaceae) Flowers” (Plants, 2023)

Experiments:
[1] = system: zebrafish embryos; experiment: Zebrafish embryo pigmentation (whitening effect); assay type: in vivo, Danio rerio; conditions: 30 µg/mL, 72 hpf, control = 100% pigmentation
Procedure: Adult zebrafish specimens (male and female) were maintained in a temperature-controlled aquarium (28.5 °C) with light-dark cycles and regularly fed with Artemia salina larvae. After natural deposition, the laid eggs were collected and incubated at 28.5 °C. After 24 h, all the eggs were observed under a stereomicroscope (SMZ-171 Series, Motic, Hong Kong, China) to select the fertilized ones. The vitality test and whitening effect were evaluated in vivo on zebrafish embryos according to the following method. […] Control embryos were incubated with embryo water (negative control). After 48 h of incubation at 28 °C (72 hpf), the effects of the treatment were observed using a stereomicroscope (SMZ-171 Series, Motic) equipped with a digital camera (Moticam® 5 plus) for image acquisition. The abnormal phenotypes and mortality of each treated group were documented. […] The images were converted to gray scale, and the pixel measurements analyzer program was used to count the area of the zebrafish image pigmentation. The quantification of pigmentation was expressed as a percentage change compared to the control group, which was considered to be 100%. All experiments were performed in compliance with the European Directive 2010/63/EU and following the ethical guidelines described by the National Institute of Health Guide for the Care and Use of Laboratory Animals.

[2] = system: TYR; design: method as in PMID 30458808, PMID 26059994; conditions: cited from earlier work
[3] = system: α-glucosidase; conditions: cited from earlier work
[4] = DPPH radical scavenging activity; conditions: mean ± SD, n = 3
Procedure: DPPH scavenging activity was measured using the method of Xiong et al., albeit with minor modifications. […] After shaking, the mixture was stored in the dark for 30 min at room temperature, and, finally, the absorbance was measured at 517 nm. Ascorbic acid served as the positive control. The percentage of DPPH scavenging activity was calculated using the following formula: Inhibition(%)=(C-S)/C∗100 where C = the absorbance of the control, and S = the absorbance of the extract.

[5] = system: α-amylase; design: method as in PMID 36115306; conditions: cited from earlier work
[6] = TEAC test (ABTS radical scavenging activity); conditions: mean ± SD, n = 3
Procedure: The free radical scavenging activities of extracts were also determined via the TEAC test using ABTS radical following the method reported by Wang et al.. […] Trolox was used as a positive control. The percentage of ABTS free radical scavenging activity was calculated using the following formula: Inhibition(%)=(C−S)/C∗100 Data were expressed in terms of the decrease in ABTS scavenging activity by 50%.

## NC(=S)Nc1ccccc1 [1-Phenyl-2-thiourea (PTU), 1-Phenyl-2-thiourea]
[1]
  embryo pigmentation, % vs. control: 36.00%

## O=c1cc(-c2ccc(O)cc2)oc2c([C@@H]3O[C@H](CO)[C@@H](O)[C@H](O)[C@H]3O)c(O)cc(O)c12 [vitexin, Vitexin]
[2]
  TYR inhibition: effective TYR inhibitors
[3]
  mechanism of action on α-glucosidase: uncompetitive

## O=C1O[C@H]([C@@H](O)CO)C(O)=C1O [Ascorbic acid]
[4]
  DPPH (IC50 µg/mL): 16.95 ± 1.20 µg/mL

## O=c1c(O[C@@H]2O[C@H](CO)[C@H](O)[C@H](O)[C@H]2O)c(-c2ccc(O)c(O)c2)oc2cc(O)cc(O)c12 [hyperoside, Hyperoside]
[2]
  TYR inhibition: effective TYR inhibitors
[5]
  manner of α-amylase inhibition: competitive

## Cc1c(C)c2c(c(C)c1O)CCC(C)(C(=O)O)O2 (stereo not shown) [Trolox]
[6]
  TEAC (IC50 µg/mL): 13.08 ± 0.02 µg/mL
